Patent publication US6482436B1, “Magnetically responsive composition” (FeRx Incorporated, priority 1993, dated 2002)
In brackets after ≈: the same amount, converted by molar mass.

Legend:
[1] = Adsorption curves and adsorption constants of pharmaceutical agents on iron:carbon carrier particles; assay type: physicochemical
Description: Adsorption upon the particles of various types of pharmaceutical agents at a range of concentrations of the pharmaceutical agent in the absorption solution was performed to determine the absorption curves and absorption constants for each compound as follows: A 16-mer anti-C-Myc oligonucleotide useful in antisense gene-directed therapy is an all phosphorothioate oligodeoxynucleotide, fluorescein-labeled at 5′ end (Macromolecular Resources, Fort Collins, Colo.). […] Unbound drug in adsorption supernatants was determined from the fluorescein fluorescence (Exc. 495 nm, em. 549 nm) using a standard curve. Hematoporphyrin dihydrochloride (Sigma Chemical, USA, H-1875, Lot #23H0879) is a photosensitizer useful in tumor therapy. The compound accumulates by biological processes in certain types of tumor tissue. Upon exposure to light, such as provided by a laser, the compound undergoes a chemical transformation to produce oxygen singlets that are toxic to cells in which it has accumulated. A stock adsorption solution was prepared and drug concentration was determined by spectrophotometry according to G. Garbo et al. Anal. […] The adsorption equation determined by computer analysis using commercially available software was: […] 6-Mercaptopurine sodium salt (provided by Dr. Gruber, Burroughs Wellcome, Lot #7P2774) is an anti-inflammatory agent. […] Drug concentration in adsorption supernatants was determined by spectrophotometry (standard curve: […] Drug concentrations in adsorption supernatants determined by spectrophotometry yielded the following equation for the concentration curve: […] Drug concentration in adsorption supernatants as determined by spectrophotometry yield the following equation for the concentration curve: […] Concentration was determined by absorbance at 253 nm (λmax=253 nm in saline solution).

[2] = Release of adsorbed Re into saline over 24 hours; assay type: physicochemical
Description: (§1) An adaptation of a colorimetric Re assay used in the field of metallurgy was used to determine the adsorption of the Re onto carrier particles having a 70:30 iron:carbon ratio. In brief, a 0.1 to 0.5 ml sample was placed in a solution containing 1.0 ml of HCl, 1.3 ml of −α furildoxime (6% in acetone), 0.5 ml of 10% stannous chloride and sufficient water to make 5.0 ml. The mixture was heated to 45° C. for 20 minutes and allowed to cool to room temperature. The absorbance of Re in the solution was measured at 532 nm. The sensitivity of the assay was to about 5 mcg Re. […] As with other drugs, the % binding of Re in the adsorption medium decreases as the Re to carbon ratio increases. […] Release over 24 hours of the Re into physiological saline at ambient temperature from the various carbons preloaded with adsorbed Re was 50% by weight.
Less than 10% of the Re was released upon incubation under efflux conditions in saline over 24 hours. The low binding of Re to the carrier particles is consistent with the low binding of other charged, small ionic molecules to activated carbon as compared with the high affinity binding of hydrophobic aromatic molecules. These findings are consistent with use of the carrier particles of the invention with adsorbed Re or Tc as imaging and therapeutic agents.

[3] = Re binding to a series of carbons (colorimetric Re assay); assay type: physicochemical; conditions: ambient temperature
Description: as §1

[4] = Effect of adsorption medium composition on Dox binding to carrier particles; assay type: physicochemical; conditions: six test adsorption media; particles first in viscosity agent, Dox/saline added later
Description: Additional studies were conducted to compare the effect of the composition of the adsorption solution on the binding of the Dox to carrier particles having an iron:carbon ratio in the range 60:40 to 80:20. The following six test adsorption media compositions were formulated to provide sufficient viscosity to keep the carrier particles physically separate during adsorption of the Dox. The particles were first placed in the viscosity agent and the Dox/saline solution was later added.
1. 10% mannitol; 2% sodium carboxymethyl cellulose (CMC) (medium viscosity); 2% polyvinyl pyrrolidone (PVP in 50 mM citrate phosphate buffer
2. 5% mannitol; 2% CMC; 2% PVP in 50 mM citrate phosphate buffer.
3. 5% mannitol; 2% CMC; 2% PVP; 5% sorbitol in 50 mM citrate phosphate buffer.
4. 10% mannitol; 1% CMC; 2% PVP (K15) in 10 mM potassium phosphate buffer (pH 7.4).
5. 10% mannitol; 1% sodium CMC; potassium phosphate buffer (pH 7.4).
6. 5% sorbitol; 1% sodium CMC; 2% PVP (K1 5); 5% mannitol; in potassium phosphate buffer (pH 7.4)

tumor cells in culture = experiment: In vitro cytotoxicity evaluation with magnetic field retention of carrier particles; assay type: cell-based; conditions: Homo sapiens; released paclitaxel: with or without magnet
Description: The IC50 for free paclitaxel alone was identical (5 ng/mL) to paclitaxel released from the carrier particles with or without magnet (5 ng/mL).

[5] = tested on: human squamous carcinoma cell line, SCC-9; experiment: Long-term CF clonogenic assay; assay type: cell-based; conditions: colonies after 2-3 weeks
Description: A separate long-term CF clonogenic assay was evaluated concurrently. In this assay, cells were plated on 35 mm petri dishes and exposed to drug and controls as outlined above. Treated cells were incubated for 2-3 weeks to allow time for colonies to establish. These colonies were fixed in 2% acetic acid and 8% ethanol and stained with crystal violet. The colonies were counted under a Bella Glass Plate Reader.

[6] = tested on: carcinosarcoma Walker 256; experiment: Treatment of Walker 256 carcinosarcoma under the tail skin of rats: life span and tumor dissolution; assay type: in vivo, rats of the Wistar Line; conditions: group II; water solution i.v. 2 mg/kg during 5 days; versus control group I (21±1.5 days); P<0.05
Description: Tests were carried out on male rats of the Wistar Line (bred at Stolbovaya Station of the USSR Academy of Medical Sciences). The rats were infused with carcinosarcoma Walker 256 under the tail skin. When the tumorous volume averaged 986±98 mm^3 the animals were divided into 4 groups, 10 rats in each. The first group (group I) was a control group, and groups II through IV were experimental groups.
The animals in group II were given intravenous injections of a water solution of rubomicine in the amount of 2 mg/kg of body weight during 5 days (the model of traditional use of such anti-cancerous preparations in clinics). The rats in group III were injected with a suspension of ferrocarbon dispersion produced by the previously known method described in European Patent Office Publication No. 0 451 299 A1. The particles comprised iron/carbon in a volume percent ratio of 60:40. The dosage of ferrocarbon particles was 160 mg/kg of body weight, and the dosage of adsorbed rubomicine thereon was 3.2 mg/g of particles. This suspension was injected into the tail vein after placing on the surface of the tumor a permanent magnet with a magnetic field intensity of 6000 oersteds. Localization of the suspension in the tumorous growth zone under control of the externally placed magnetic field was monitored by x-ray pictures. […]

[7] = Comparative binding of photosensitizers to iron:carbon particles; assay type: physicochemical; conditions: 80 mcg/ml (0.11 mM) in PBS pH 7.4, 50 mg particles
From the text: (§2) Certain porphyrins are photosensitizing compounds useful in photodynamic therapy against tumors. […] Several classes of photosensitizers were screened for comparative binding to iron:carbon particles of various composition. The wavelength near the activation wavelength (often the λmax) of a particular photosensitizer was used for quantitative drug measurements. […] The photosensitizers tested were hematoporphyrin derivative (HPD); benzoporphyrin derivative monoacid A (BPD-ma); Photofrin® porfimer sodium (PF2); and clorin e6. For the binding studies, 10 mg of carbon or 50 mg of iron:carbon particles were optimum. An octanol/buffer (pH 7.4) partition coefficient for the four compounds was as follows: HPD=1; chlorin e6=1.1; PF2=0.1≧; and BPD-ma=4000>.

[8] = Octanol/buffer (pH 7.4) partition coefficient; assay type: physicochemical
From the text: as §2

[9] = Binding and release of BPD-ma with prototype iron:carbon carrier particles (MTCs); assay type: physicochemical; conditions: from a 10-fold increase in the initial concentration of the drug; isopropanol medium, 18 hours
Description: In order to achieve higher loading levels of BPD-ma, the binding capacity and fractional binding of the drug to four prototype iron:carbon carrier particles (MTCs, or, magnetic targeted compounds) was tested using 1.4 mM drug in isopropanol (with 0.5% 0.02 M acetic acid) as the adsorption medium and a longer equilibration period of 18 hours.

[10] = 80:20 Type K, 0.9% NaCl, pH 10.4, equilibration 2 hrs
[11] = 75:25 Type K, Saline solution, equilibration 0.5 hr

| Compound | % binding, % ([7]; iron:carbon 30:70 Type A) [%] | % binding, mg/mg % ([7]; iron:carbon 30:70 Type A) [mg/mg %] | % binding, % ([7]; iron:carbon 30:70 Type E) [%] | % binding, mg/mg % ([7]; iron:carbon 30:70 Type E) [mg/mg %] | octanol/buffer partition coefficient [8] | other results |
| --- | --- | --- | --- | --- | --- | --- |
| Sc1ncnc2nc[nH]c12.[Na] [6-MP Mercaptopurine, 6-Mercaptopurine sodium salt] | – | – | – | – | – | Adsorption constant [1, 10]: 0.24 ± 0.064 (mg/ml)^−1; Maximum adsorption (% of carrier weight) [1, 10]: 11.0 ± 0.97 % of carrier weight |
| C[C@@H]1[C@H](O)[C@@H](C)/C=C/C=C/C=C/C=C/C=C/C=C/C=C/[C@H](O[C@@H]2O[C@H](C)[C@@H](O)[C@H](N)[C@@H]2O)C[C@@H]2O[C@](O)(C[C@@H](O)C[C@@H](O)[C@H](O)CC[C@@H](O)C[C@@H](O)CC(=O)O[C@H]1C)C[C@H](O)[C@H]2C(=O)O [Amphotericin B] | – | – | – | – | – | Maximum adsorption (% of carrier weight) ([1]; 80:20 Type K, 0.9% NaCl pH 12 (KOH), equilibration 24 hrs): 10.4 ± 0.55 % of carrier weight |
| CC[C@@]1(O)C(=O)OCc2c1cc1n(c2=O)Cc2cc3ccccc3nc2-1 [Camptothecin] | – | – | – | – | – | Adsorption constant [1, 11]: 521 (mg/ml)^−1; Maximum adsorption (% of carrier weight) [1, 11]: 11 % of carrier weight; Maximum adsorption (% of carrier weight) ([1]; 80:20 Type K, C/E 1:1 (chloroform:ethanol), equilibration 3 hrs, footnote: Below detection limit): 0^2 % of carrier weight |
| [Re] [Re, rhenium] | – | – | – | – | – | Re released over 24 hours ([2]; from iron:carbon carrier particles, efflux conditions in saline): Less than 10%; release of Re over 24 hours ([2]; from the various carbons preloaded with Re, physiological saline, ambient temperature): 50 % by weight; Re binding to a series of carbons ([3]; 30 mg carbon in the adsorption medium): about 35%; Re binding to a series of carbons ([3]; 180 mg carbon in the adsorption medium): about 90% |
| COc1cccc2c1C(=O)c1c(O)c3c(c(O)c1C2=O)C[C@@](O)(C(=O)CO)C[C@@H]3O[C@H]1C[C@H](N)[C@H](O)[C@H](C)O1 [doxorubicin] | – | – | – | – | – | adsorption of Dox to the carrier particles by adsorption medium [4]: highest adsorption of Dox to the carrier particles was obtained using formulae 4, 5, and 6 |
| CC(=O)O[C@H]1C(=O)[C@@]2(C)[C@H]([C@H](OC(=O)c3ccccc3)[C@]3(O)C[C@H](OC(=O)[C@H](O)[C@@H](NC(=O)c4ccccc4)c4ccccc4)C(C)=C1C3(C)C)[C@]1(OC(C)=O)CO[C@@H]1C[C@@H]2O [paclitaxel] | – | – | – | – | – | IC50 (tumor cells in culture): 5 ng/mL (≈ 5.86 nM); IC50 [5]: 3 ng/mL (≈ 3.51 nM) |
| COc1cccc2c1C(=O)c1c(O)c3c(c(O)c1C2=O)C[C@@](O)(C(C)=O)C[C@@H]3O[C@H]1C[C@H](N)[C@H](O)[C@H](C)O1 [rubomicine] | – | – | – | – | – | life span following treatment increased by an average of [6]: 4.5 days |
| Photofrin® porfimer sodium [PF2] | 11.4 | 0.13 | 7.2 | 0.08 | ≤ 0.1 | – |
| benzoporphyrin derivative monoacid A [BPD-ma] | 30.1 | 0.33 | 23.0 | 0.25 | > 4000 | increase in binding capacity [9]: 30 fold |
| clorin e6 | 69.9 | 0.8 | 68.8 | 0.7 | 1.1 | – |
| hematoporphyrin derivative [HPD] | 41.9 | 0.5 | 37.0 | 0.4 | 1 | – |
